These results are taken from patent publication US20060165683A1, “Methods and compositions for control of bone formation via modulation of sympathetic tone” (priority 2001, published 2006).

For one assay, the system named is ob/ob mice. Description: Long-term isoproterenol treatment of ob/ob mice. It is filed as in vivo, mouse. The procedure: Wildtype (C57BL/6J) and mutant (C57BL/6J A^y/a, C57BL/6J ob/ob) mice were obtained from the Jackson laboratory and adrenal medullectomized mice from Harlan Tecklad laboratory. Dbh−/− mice were rescued as previously described (Thomas et al., 1998, Neurochem 70:2468-2476). […] Propranolol (Sigma) was added to the drinking water at a concentration of 0.5 g/l. For ICV infusion, a 28-gauge cannula (Brain infusion kit II, Alza) was implanted into the third ventricle as previously described infusing human leptin (Sigma) at 8 ng/hr or MT-II at 125 ng/hr (Phoenix Pharmaceuticals) for 28 days (see, e.g., Ducy et al., 2000, Cell 100: 197-207). The cannula was connected to an osmotic pump (Alza) placed in the dorsal subcutaneous space of the animal. For parabiosis longitudinal incisions were made in the skin and in the peritoneal cavity along one side on each mouse. Edges of the incisions were connected by suture to induce coelioanastomosis. Cross-circulation was quantified by injecting 1 ml/kg 0.25% Evans blue into the tail vein of one mouse of the parabiosed pair. After 30 min. blood was collected from both mice by retroorbital bleeding and the blood exchange rate was calculated according to standard techniques (see, e.g., Harris & Martin, 1984, Am J Physiol 247:R380-386). […] Two weeks after parabiosis a pump delivering leptin ICV in one animal of each pair was implanted. For GTG lesioning, 4-week-old C57BL/6J mice were given a single ip injection of either PBS or GTG (0.5 mg/g). For MSG lesioning, 2 day-old C57BL/6J pups were injected daily subcutaneously with either PBS or MSG (2 mg/g) for 10 days.
Histological analyses were performed on undecalcified sections stained by von Kossa and counterstained by von Gieson (see, e.g., Ducy et al., 2000, Cell 100:197-207). Static and dynamic histomorphometric analyses were performed according to standard protocols (see, e.g., Parfitt et al., 1987, J Bone Miner Res 6:595-610) using the Osteomeasure Analysis System (Osteometrics, Atlanta). Six to 12 animals were analyzed for each group. Statistical significance was assessed by Student's t test.
Primary osteoblast cultures were established as previously described (see, e.g., Ducy et al., 2000, Cell 100: 197-207) and maintained in αMEM/0.1 mg/ml ascorbic acid supplemented with 10% FBS. SaOS-2 were grown in MEM/10% FBS. For cAMP assay confluent cultures were incubated with serum free medium containing 100 μM IBMX (3-isobutyl-1-methylxanthine, Sigma) for 8 minutes before PBS, PTH(1-34) (Bachem), isoproterenol, norepinephrine, phenylephrine (Sigma) or propranolol were added for 5 min. Intracellular cAMP concentration was measured by immunoassay (R&D Systems). For gene expression analyses, primary osteoblasts were treated for 72 hours with appropriate drugs in 0.1% FBS. Hormone serum levels were quantified using immunoassays kits from Peninsula Laboratories (Insulin) or Alpco Diagnostics (leptin). Deoxypyridinoline cross-links and Creatinine were measured in morning urines using the Quidel kits. a1(I) leptin bioactivity was verified by cotransfection of 293 cells expressing ObRb with a STAT3-responsive-luc reporter construct, pSVβgal plasmid and a1(I) leptin expression vector or mock. Twenty-four hours later luciferase and β-galactosidase activities were measured. Data represents ratios of luciferase/β-galactosidase activities, and values are mean of 6 independent transfection experiments.
To address this point one month-old ob/ob mice were treated for 6 weeks with the β-adrenergic agonist isoproterenol or vehicle.

Assay [1] has as its system primary osteoblasts isolated from wild-type mice. The assay is described as follows: Leptin signaling in primary osteoblast cultures (Stat3 phosphorylation, immediate early genes, matrix synthesis and mineralization). It is filed as cell-based, mouse. The procedure:
Expression of leptin in osteoblasts was studied in subconfluent primary osteoblast cultures from wild-type mice which were maintained for 4 days in 10% FBS mineralization medium and then subsequently switched to 0.5% for 2 days and replaced daily. Medium was replaced 2 hours before a 20 min treatment with 80 ng/mL leptin (Sigma) or 40 ng/mL Oncostatin M (R&D Diagnostics) or vehicle. RNA extractions were performed using Triazol (Gibco). Northern blots were performed with 15 μg of total RNA according to methods well known in the art.
To determine whether or not leptin could transduce its signal in osteoblasts, serum-starved primary osteoblasts isolated from wild-type mice were treated with leptin. Primary osteoblast cultures from calvaria of newborn wild-type or db/db mice were established as previously described (Ducy et al., 1999, Genes Dev 13, 1025-1036) and maintained in mineralization medium (αMEMI 0.1 mg/mL ascorbic acid; 5 mM […]) supplemented with 10% […]. Cultures of mutant cells were maintained in this medium for 15 days before analysis. Cultures derived from wild-type mice were maintained for 10 days in this medium then the percentage of serum was reduced to 0.5% and the medium supplemented with 1.2 μg/mL leptin (Sigma) or vehicle for 5 days.
The phosphorylation of Stat3, a downstream effector of leptin signaling in its target cells (Tartaglia et al., 1995, Cell 83, 1263-1271; Baumann et al., 1996, Proc Natl Acad Sci USA 93, 8374-8378; Ghilardi et al., 1996, Proc Natl Acad Sci USA 93, 6231-6235; Vaisse et al., 1996, Nat Genet 14, 95-97), was monitored, in addition to the expression of two immediate early genes whose transcription is increased following leptin treatment of target cells (Elmquist et al., 1997, Endocrinology 138, 839-842). As a positive control oncostatin-M that induces Stat3 phosphorylation and activates the expression of the same two immediate early genes in osteoblasts (Levy et al., 1996, Endocrinology 137, 1159-1165) was utilized. Western blot analysis was performed to determine Stat3 phosphorylation as follows. Cells were lysed, protein extracts were separated on a 7.5% SDS-PAGE and blotted on nitrocellulose (Biorad) for immunoblotting assay by methods well known in the art. Analysis of Stat3 phosphorylation was performed using the PhosphoPlus Stat3 (Tyr7O5) Antibody kit (New England Biolabs) according to the manufacturer's instructions.
Finally, the effect of a long-term leptin treatment of primary osteoblast cultures from wild-type mice on extracellular matrix synthesis and bone matrix mineralization was determined. The presence of a collagen-rich extracellular matrix and of mineralization nodules was assessed by whole-mount staining of the cultures by the van Gieson and von Kossa reagent, respectively. No difference was observed when assessing collagen synthesis or mineralization nodule formation between control and leptin-treated cultures (FIG. 5E).

[2] abbreviates: ob/ob mice, 3 mg/kg/day, 6 weeks.

In the case of `CC(C)NCC(O)c1ccc(O)c(O)c1` (centres unmarked) [isoproterenol], the “Bone Volume” value in the assay with ob/ob mice (ob/ob + isoproterenol) was “Low”. The “expression of uncoupling protein 1 (Ucp1) in brown adipose tissue” value with ob/ob mice (ob/ob mice) is reported as “increased”. Also, in the assay with ob/ob mice (setting [2]), the bone formation rate result was “marked decrease”, the bone resorption parameters entry is reported as “unaffected” and the “number of osteoblasts per bone surface” value is given as “marked decrease”. Further, the “bone mass and bone formation parameters compared with 3 mg/kg/day” value in the assay with ob/ob mice (ob/ob mice, 10 mg/kg/day) is given as “Identical results”. Besides, the body weight entry in the assay on ob/ob mice (ob/ob mice, 3 and 10 mg/kg/day) is “without affecting”. The “bone mass in the vertebrae and long bones” value in the assay with ob/ob mice (one month-old ob/ob mice, 3 mg/kg/day ip, 6 weeks) is listed as “massive bone loss”.

B1: leptin: polypeptide hormone, product of the ob gene; human leptin (Sigma) infused ICV (protein)
chain: VPIQKVQDDTKTLIKTIVTRINDISHTQSVSAKQRVTGLDFIPGLHPILSLSKMDQTLAVYQQVLTSLPSQNVLQIANDLENLRDLLHLLAFSKSCSLPQTSGLQKPESLDGVLEASLYSTEVVALSRLQGSLQDILQQLDVSPEC
With B1, the “collagen synthesis or mineralization nodule formation vs control cultures” value in assay [1] (long-term treatment, 1.2 μg/mL leptin for 5 days, 0.5% serum) is reported as “No difference”. Moreover, the “expression of Tis11 and c-fos (Northern analysis)” value in assay [1] (primary osteoblasts, 20 min treatment) is given as “not”. Besides, the “Stat3 phosphorylation (Western blot)” value in assay [1] (serum-starved primary osteoblasts, 20 min, leptin 80 ng/mL, Oncostatin M 40 ng/mL) was “did not”.
